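Each compound was tested at five concentrations against cells in 96-well plates for 48 hours. TGI denotes the concentration required for complete inhibition of growth.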
Key:
Test in all cases: NCI tumour cell line growth inhibition, 48 h
ACHN renal = test system: ACHN renal
SNB-19 CNS = test system: SNB-19 CNS
MDA-N = test system: MDA-N
MALME-3M melanoma = test system: MALME-3M melanoma
HCC-2998 colon = test system: HCC-2998 colon
EKVX NSCLC = test system: EKVX NSCLC
DU-145 prostate = test system: DU-145 prostate
UO-31 renal = test system: UO-31 renal
COLO 205 colon = test system: COLO 205 colon
HT29 colon = test system: HT29 colon
NCI-H460 lung = test system: NCI-H460 lung
A549 NSCLC = test system: A549 NSCLC
NCI-H226 lung = test system: NCI-H226 lung
HOP-92 NSCLC = test system: HOP-92 NSCLC
SF-295 CNS = test system: SF-295 CNS
A498 renal = test system: A498 renal
LOX IMVI melanoma = test system: LOX IMVI melanoma
SK-MEL-28 melanoma = test system: SK-MEL-28 melanoma
HCT-15 colon = test system: HCT-15 colon
SF-539 CNS = test system: SF-539 CNS
M14 melanoma = test system: M14 melanoma
UACC-257 melanoma = test system: UACC-257 melanoma
U251 CNS = test system: U251 CNS
OVCAR-4 ovarian = test system: OVCAR-4 ovarian
RPMI-8226 leukemia = test system: RPMI-8226 leukemia
RXF 393 renal = test system: RXF 393 renal
SK-OV-3 ovarian = test system: SK-OV-3 ovarian
SK-MEL-5 melanoma = test system: SK-MEL-5 melanoma
SK-MEL-2 melanoma = test system: SK-MEL-2 melanoma
NCI-H23 lung = test system: NCI-H23 lung
HOP-18 NSCLC = test system: HOP-18 NSCLC
KM12 colon = test system: KM12 colon
RXF-631 renal = test system: RXF-631 renal
HCT-116 colon = test system: HCT-116 colon
PC-3 prostate = test system: PC-3 prostate
DLD-1 colon = test system: DLD-1 colon
NCI/ADR-RES ovarian = test system: NCI/ADR-RES ovarian
NCI-H522 lung = test system: NCI-H522 lung
SNB-78 CNS = test system: SNB-78 CNS
SR leukemia = test system: SR leukemia
SW-620 colon = test system: SW-620 colon
LXFL 529 NSCLC = test system: LXFL 529 NSCLC
M19-MEL melanoma = test system: M19-MEL melanoma
SF-268 CNS = test system: SF-268 CNS
CAKI-1 renal = test system: CAKI-1 renal
SN12C renal = test system: SN12C renal
IGROV1 ovarian = test system: IGROV1 ovarian
SNB-75 CNS = test system: SNB-75 CNS
OVCAR-3 ovarian = test system: OVCAR-3 ovarian
BT-549 breast = test system: BT-549 breast
OVCAR-8 ovarian = test system: OVCAR-8 ovarian
DMS 114 small cell lung = test system: DMS 114 small cell lung
OVCAR-5 ovarian = test system: OVCAR-5 ovarian
DMS 273 small cell lung = test system: DMS 273 small cell lung
T-47D breast = test system: T-47D breast
HS 578T breast = test system: HS 578T breast
HOP-62 NSCLC = test system: HOP-62 NSCLC
KM20L2 colon = test system: KM20L2 colon
HL-60(TB) leukemia = test system: HL-60(TB) leukemia
786-0 renal = test system: 786-0 renal
K-562 leukemia = test system: K-562 leukemia
MDA-MB-231 breast = test system: MDA-MB-231 breast
MOLT-4 leukemia = test system: MOLT-4 leukemia
UACC-62 melanoma = test system: UACC-62 melanoma
XF 498 CNS = test system: XF 498 CNS
MDA-MB-435 = test system: MDA-MB-435
TK-10 renal = test system: TK-10 renal
MCF7 breast = test system: MCF7 breast
CCRF-CEM leukemia = test system: CCRF-CEM leukemia

CCN(CC)CCCNc1ccc2nnn3c4ccc(O)cc4c(=O)c1c23
TGI (ACHN renal): 17.3 µM | TGI (SNB-19 CNS): 22.8 µM | TGI (MDA-N): 20.9 µM | TGI (MALME-3M melanoma): 26.4 µM | TGI (HCC-2998 colon): 23.4 µM | TGI (EKVX NSCLC): 29.8 µM | TGI (DU-145 prostate): 24.1 µM | TGI (UO-31 renal): 6.27 µM | TGI (COLO 205 colon): 19.5 µM | TGI (HT29 colon): 14.1 µM | TGI (NCI-H460 lung): 9.13 µM | TGI (A549 NSCLC): 10.3 µM | TGI (NCI-H226 lung): 22.4 µM | TGI (HOP-92 NSCLC): 43.8 µM | TGI (SF-295 CNS): 22.8 µM | TGI (A498 renal): 24.3 µM | TGI (LOX IMVI melanoma): 13.1 µM | TGI (SK-MEL-28 melanoma): 32 µM | TGI (HCT-15 colon): 19.4 µM | TGI (SF-539 CNS): 22.8 µM | TGI (M14 melanoma): 23.6 µM | TGI (UACC-257 melanoma): 32.6 µM | TGI (U251 CNS): 7.61 µM | TGI (OVCAR-4 ovarian): 19.3 µM | TGI (RPMI-8226 leukemia): 32.2 µM | TGI (RXF 393 renal): 15 µM | TGI (SK-OV-3 ovarian): 22.1 µM | TGI (SK-MEL-5 melanoma): 22.6 µM | TGI (SK-MEL-2 melanoma): 28.8 µM | TGI (NCI-H23 lung): 23.5 µM | TGI (HOP-18 NSCLC): 29.8 µM | TGI (KM12 colon): 20 µM | TGI (RXF-631 renal): 17.4 µM | TGI (HCT-116 colon): 16.3 µM | TGI (PC-3 prostate): 19.3 µM | TGI (DLD-1 colon): 19 µM | TGI (NCI/ADR-RES ovarian): 22.9 µM | TGI (NCI-H522 lung): 24.3 µM | TGI (SNB-78 CNS): 32.5 µM | TGI (SR leukemia): 21.8 µM | TGI (SW-620 colon): 18.4 µM | TGI (LXFL 529 NSCLC): 21.2 µM | TGI (M19-MEL melanoma): 26.8 µM | TGI (SF-268 CNS): 18.6 µM | TGI (CAKI-1 renal): 17 µM | TGI (SN12C renal): 20.7 µM | TGI (IGROV1 ovarian): 19.4 µM | TGI (SNB-75 CNS): 20.2 µM | TGI (OVCAR-3 ovarian): 25.2 µM | TGI (BT-549 breast): 27 µM | TGI (OVCAR-8 ovarian): 12.9 µM | TGI (DMS 114 small cell lung): 25.1 µM | TGI (OVCAR-5 ovarian): 26.8 µM | TGI (DMS 273 small cell lung): 17.9 µM | TGI (T-47D breast): 39.9 µM | TGI (HS 578T breast): 31 µM | TGI (HOP-62 NSCLC): 22.6 µM | TGI (KM20L2 colon): 18.7 µM | TGI (HL-60(TB) leukemia): 33.2 µM | TGI (786-0 renal): 19.6 µM | TGI (K-562 leukemia): 53.3 µM | TGI (MDA-MB-231 breast): 20.9 µM | TGI (MOLT-4 leukemia): 18.5 µM | TGI (UACC-62 melanoma): 30.9 µM | TGI (XF 498 CNS): 28.9 µM | TGI (MDA-MB-435): 22.1 µM | TGI (TK-10 renal): 17.6 µM | TGI (MCF7 breast): 34 µM | TGI (CCRF-CEM leukemia): 39.8 µM

Cc1nc(N)sc1C(=O)/C=C/c1ccc(/C=C/C(=O)c2sc(NC(=O)CCCCCCCCC(=O)Nc3nc(C)c(C(=O)/C=C/c4ccc(/C=C/C(=O)c5sc(N)nc5C)cc4)s3)nc2C)cc1
TGI (ACHN renal): > 100 µM | TGI (SNB-19 CNS): > 100 µM | TGI (MALME-3M melanoma): > 100 µM | TGI (HCC-2998 colon): > 100 µM | TGI (EKVX NSCLC): > 100 µM | TGI (UO-31 renal): > 100 µM | TGI (COLO 205 colon): > 100 µM | TGI (HT29 colon): > 100 µM | TGI (NCI-H460 lung): > 100 µM | TGI (A549 NSCLC): > 100 µM | TGI (SF-295 CNS): > 100 µM | TGI (LOX IMVI melanoma): > 100 µM | TGI (SK-MEL-28 melanoma): > 100 µM | TGI (HCT-15 colon): > 100 µM | TGI (SF-539 CNS): > 100 µM | TGI (M14 melanoma): > 100 µM | TGI (UACC-257 melanoma): > 100 µM | TGI (U251 CNS): > 100 µM | TGI (OVCAR-4 ovarian): > 100 µM | TGI (RXF 393 renal): > 100 µM | TGI (SK-OV-3 ovarian): > 100 µM | TGI (SK-MEL-2 melanoma): > 100 µM | TGI (NCI-H23 lung): > 100 µM | TGI (HOP-18 NSCLC): > 100 µM | TGI (KM12 colon): > 100 µM | TGI (RXF-631 renal): > 100 µM | TGI (HCT-116 colon): > 100 µM | TGI (DLD-1 colon): > 100 µM | TGI (NCI-H522 lung): > 100 µM | TGI (SNB-78 CNS): > 100 µM | TGI (SR leukemia): > 100 µM | TGI (SW-620 colon): > 100 µM | TGI (LXFL 529 NSCLC): > 100 µM | TGI (M19-MEL melanoma): > 100 µM | TGI (SF-268 CNS): > 100 µM | TGI (CAKI-1 renal): > 100 µM | TGI (SN12C renal): > 100 µM | TGI (IGROV1 ovarian): > 100 µM | TGI (OVCAR-3 ovarian): > 100 µM | TGI (OVCAR-8 ovarian): > 100 µM | TGI (DMS 114 small cell lung): > 100 µM | TGI (OVCAR-5 ovarian): > 100 µM | TGI (DMS 273 small cell lung): > 100 µM | TGI (HOP-62 NSCLC): > 100 µM | TGI (KM20L2 colon): > 100 µM | TGI (HL-60(TB) leukemia): > 100 µM | TGI (786-0 renal): > 100 µM | TGI (K-562 leukemia): > 100 µM | TGI (MOLT-4 leukemia): > 100 µM | TGI (UACC-62 melanoma): 87.8 µM | TGI (XF 498 CNS): > 100 µM | TGI (TK-10 renal): > 100 µM | TGI (CCRF-CEM leukemia): > 100 µM

C=CCc1cc2cccc(OC)c2oc1=O
TGI (ACHN renal): > 100 µM | TGI (SNB-19 CNS): > 100 µM | TGI (MALME-3M melanoma): > 100 µM | TGI (HCC-2998 colon): > 100 µM | TGI (EKVX NSCLC): > 100 µM | TGI (UO-31 renal): 69.2 µM | TGI (COLO 205 colon): > 100 µM | TGI (HT29 colon): > 100 µM | TGI (NCI-H460 lung): > 100 µM | TGI (A549 NSCLC): > 100 µM | TGI (NCI-H226 lung): > 100 µM | TGI (HOP-92 NSCLC): > 100 µM | TGI (SF-295 CNS): > 100 µM | TGI (A498 renal): > 100 µM | TGI (LOX IMVI melanoma): > 100 µM | TGI (SK-MEL-28 melanoma): > 100 µM | TGI (HCT-15 colon): > 100 µM | TGI (SF-539 CNS): > 100 µM | TGI (M14 melanoma): > 100 µM | TGI (UACC-257 melanoma): > 100 µM | TGI (U251 CNS): > 100 µM | TGI (OVCAR-4 ovarian): > 100 µM | TGI (RPMI-8226 leukemia): > 100 µM | TGI (SK-MEL-5 melanoma): > 100 µM | TGI (SK-MEL-2 melanoma): > 100 µM | TGI (NCI-H23 lung): > 100 µM | TGI (HOP-18 NSCLC): > 100 µM | TGI (KM12 colon): > 100 µM | TGI (RXF-631 renal): > 100 µM | TGI (HCT-116 colon): > 100 µM | TGI (DLD-1 colon): > 100 µM | TGI (NCI-H522 lung): > 100 µM | TGI (SNB-78 CNS): > 100 µM | TGI (SR leukemia): > 100 µM | TGI (SW-620 colon): > 100 µM | TGI (LXFL 529 NSCLC): > 100 µM | TGI (M19-MEL melanoma): > 100 µM | TGI (SF-268 CNS): > 100 µM | TGI (CAKI-1 renal): > 100 µM | TGI (SN12C renal): > 100 µM | TGI (IGROV1 ovarian): > 100 µM | TGI (SNB-75 CNS): > 100 µM | TGI (OVCAR-3 ovarian): > 100 µM | TGI (OVCAR-8 ovarian): > 100 µM | TGI (DMS 114 small cell lung): > 100 µM | TGI (OVCAR-5 ovarian): > 100 µM | TGI (DMS 273 small cell lung): > 100 µM | TGI (HOP-62 NSCLC): > 100 µM | TGI (KM20L2 colon): > 100 µM | TGI (HL-60(TB) leukemia): > 100 µM | TGI (786-0 renal): > 100 µM | TGI (K-562 leukemia): > 100 µM | TGI (MOLT-4 leukemia): > 100 µM | TGI (UACC-62 melanoma): > 100 µM | TGI (XF 498 CNS): 53.5 µM | TGI (TK-10 renal): > 100 µM | TGI (CCRF-CEM leukemia): > 100 µM

— PubChem BioAssay (NCI)
